# Source: ChEMBL document CHEMBL3832761, “MMV Pathogen Box Bioactivity Data” (2017)
# Tests used:
# Toxoplasma gondii [1] = assay: AntiToxoplasma gondii activity data 2-day killing assay: inhibition at 10 uM (%) Experiment D; assay type: functional
# Toxoplasma gondii [2] = assay: AntiToxoplasma gondii activity data 2-day killing assay: inhibition at 10 uM (%) Experiment E; assay type: functional
# Toxoplasma gondii [3] = assay: AntiToxoplasma gondii activity data 2-day killing assay: inhibition at 10 uM (%) Experiment C; assay type: functional; conditions: 48 h
# Toxoplasma gondii [4] = assay: AntiToxoplasma gondii activity data 2-day killing assay: IC50 (uM), Experiment F; assay type: functional, organism-based
# [5] = HL60 CC50 (uM) Cytotoxicity; assay type: functional; conditions: HL-60
# Toxoplasma gondii [6] = assay: AntiToxoplasma gondii activity data Inhibition of plaque forming efficiency (%) Experiment B; assay type: functional; set-up: concentration or dose not given beside the values
# Toxoplasma gondii [7] = assay: AntiToxoplasma gondii activity data 2-day killing assay: IC50 (uM), Experiment G; assay type: functional, organism-based
# Toxoplasma gondii [8] = assay: AntiToxoplasma gondii activity data Inhibition of plaque forming efficiency (%) Experiment A; assay type: functional; set-up: concentration or dose not given beside the values
# Dengue virus [9] = assay: AntiDengue activity HCI DV1/A549 IC50 (uM); assay type: functional, organism-based
# Dengue virus [10] = assay: AntiDengue activity HCI DV4/A549 IC50 (uM); assay type: functional, organism-based
# Dengue virus [11] = assay: AntiDengue activity HCI DV3/A549 IC50 (uM); assay type: functional, organism-based
# A549 = assay: A549 CC50 (uM) Cytotoxicity; assay type: functional; conditions: Homo sapiens
# Dengue virus [12] = assay: AntiDengue activity HCI DV2/A549 IC50 (uM); assay type: functional, organism-based
# [13] = AntiChikungunya activity HCI CHIKV/Huh7 IC50 (uM); assay type: functional, Chikungunya virus
# Dengue virus [14] = assay: AntiDengue activity HCI DV2/Huh7 IC50 (uM); assay type: functional, organism-based; conditions: Huh-7
# HepG2 [15] = assay: HepG2 CC50 (uM) Cytotoxicity; assay type: functional; conditions: Homo sapiens
# [16] = HUH7 CC50 (uM) Cytotoxicity; assay type: functional; conditions: Huh-7
# Onchocerca ochengi [17] = assay: AntiOnchocerca activity O. ochengi adult males: final mean inhibition motility at 10 uM on Day 5 (%); assay type: functional
# Onchocerca lienalis = assay: AntiOnchocerca activity O. lienalis microfilariae Motility reduction (%); assay type: functional; set-up: concentration or dose not given beside the values
# Onchocerca volvulus [18] = assay: AntiOnchocerca activity O. volvulus L3 Molting assay: inhibition at 10 uM (%); assay type: functional
# Onchocerca ochengi [19] = assay: AntiOnchocerca activity O. ochengi adult females: final mean inhibition motility at 10 uM on Day 7 (%); assay type: functional
# Brugia pahangi = assay: AntiBrugia pahangi activity Average inhibition motility at 10 uM (%); assay type: functional
# Onchocerca gutturosa [20] = assay: AntiOnchocerca activity O. gutturosa adult males: MTT reduction at 12.5 uM (%); assay type: functional; set-up: scale not given: the % may be the effect or the level left
# HepG2 [21] = assay: Cytotoxicity data HepG2 CC20 (uM); assay type: functional
# Onchocerca gutturosa [22] = assay: AntiOnchocerca activity O. gutturosa adult males: Motility reduction at 12.5 uM (%); assay type: functional; set-up: scale not given: the % may be the effect or the level left
# Onchocerca volvulus [23] = assay: AntiOnchocerca activity O. volvulus L3 Molting assay: IC50 (uM); assay type: functional, organism-based
# Wolbachia = assay: Anti-Wolbachia activity Reduction in Wolbachia infected cells at 10 uM (%); assay type: functional, cell-based; set-up: Activity: scale not given: the % may be the effect or the level left
# Trypanosoma brucei [24] = assay: AntiTrypanosoma brucei activity T. b. rhodesiense IC50 (uM); assay type: functional, organism-based
# Leishmania donovani [25] = assay: AntiLeishmania activity L. donovani (axenic) IC50 (uM); assay type: functional, organism-based
# L6 = assay: L6 CC50 (uM) Cytotoxicity; assay type: functional; conditions: Rattus norvegicus
# Leishmania major = assay: AntiLeishmania activity L. major IC50 (uM); assay type: functional, organism-based
# [26] = PMM CC50 (uM) Cytotoxicity; assay type: functional; conditions: Macrophage
# Trypanosoma brucei [27] = assay: AntiTrypanosoma brucei activity T. b. brucei IC50 (uM); assay type: functional, organism-based
# Leishmania donovani [28] = assay: AntiLeishmania activity L. donovani (macrophages) IC50 (uM); assay type: functional, organism-based
# Leishmania infantum = assay: AntiLeishmania activity L. infantum (macrophages) IC50 (uM); assay type: functional, organism-based
# Leishmania = assay: AntiLeishmania activity Toxicity on infected PMM (uM); assay type: functional
# MRC5 = assay: MRC5 CC50 (uM) Cytotoxicity; assay type: functional; conditions: Homo sapiens
# Trypanosoma cruzi = assay: AntiTrypanosoma cruzi activity IC50 (uM); assay type: functional, organism-based
# Onchocerca gutturosa [29] = assay: AntiOnchocerca activity O. gutturosa adult males: EC50 (uM); assay type: functional, organism-based
structure (smiles),measurement,setting,value
CC(=O)N1CCN(c2ccc(Oc3ccc(Cl)cc3O)cc2)CC1,Inhibition,Toxoplasma gondii [1],22.4%
same,Inhibition,Toxoplasma gondii [2],64.6%
same,inhibition at 10 µM,Toxoplasma gondii [3],71%
same,IC50,Toxoplasma gondii [4],no inhibition
same,CC50,[5],> 50 µM
same,Inhibition,Toxoplasma gondii [6],~90%
same,IC50,Toxoplasma gondii [7],no inhibition
same,Inhibition,Toxoplasma gondii [8],~90%
O=C1[C@@H](Oc2ccccc2)[C@@H](c2ccc(Cl)cc2)N1CCn1cnc2c(NCc3ccccc3)ncnc21,IC50,Dengue virus [9],3 µM
same,IC50,Dengue virus [10],2 µM
same,IC50,Dengue virus [11],4 µM
same,CC50,A549,40 µM
same,IC50,Dengue virus [12],6 µM
same,IC50,[13],6 µM
same,IC50,Dengue virus [14],3 µM
same,CC50,HepG2 [15],3 µM
same,CC50,[16],10 µM
CC(=O)N(CCN(C(=O)c1ccc(F)cc1)c1ccccc1)c1ccccc1,Inhibition,Onchocerca ochengi [17],0%
same,Activity,Onchocerca lienalis,13.3%
same,Inhibition,Onchocerca volvulus [18],100%
same,Inhibition,Onchocerca ochengi [19],4%
same,Inhibition,Brugia pahangi,4%
same,CC50,[5],> 50 µM
same,Activity,Onchocerca gutturosa [20],0%
same,CC20,HepG2 [21],39 µM
same,Activity,Onchocerca gutturosa [22],42.9%
same,IC50,Onchocerca volvulus [23],3.13 µM
CCc1nc2ccc(C(=O)NCc3ccc4c(c3)OCO4)cn2c1N(C)Cc1cccs1,CC20,HepG2 [21],18.6 µM
same,Activity,Wolbachia,45%
CC(C)(C)OC(=O)N1CCC(Cn2nc(-c3cnc4ccccc4c3)c3c(N)ncnc32)CC1,Inhibition,Toxoplasma gondii [1],36.1%
same,Inhibition,Toxoplasma gondii [2],0%
same,inhibition at 10 µM,Toxoplasma gondii [3],1.88%
same,CC50,[5],> 50 µM
same,Inhibition,Toxoplasma gondii [6],~75%
same,Inhibition,Toxoplasma gondii [8],100%
Cc1nc(-c2ccccn2)nc(N2CCC(Cc3ccccc3)C2)c1Cl (configuration not stated),IC50,Trypanosoma brucei [24],5.62 µM
same,IC50,Leishmania donovani [25],0.03 µM
same,CC50,L6,15.2 µM
same,IC50,Leishmania major,8.96 µM
same,CC50,[26],16 µM
same,CC20,HepG2 [21],10.2 µM
same,IC50,Trypanosoma brucei [27],6.61 µM
same,IC50,Leishmania donovani [28],4.2 µM
same,IC50,Leishmania infantum,4.03 µM
same,Toxicity on infected macrophages,Leishmania,16.7 µM
same,CC50,MRC5,15.5 µM
same,IC50,Trypanosoma cruzi,0.97 µM
Oc1c(I)cc(I)c2cccnc12 [IODOQUINOL],Activity,Onchocerca lienalis,93.3%
same,Activity,Onchocerca gutturosa [20],88%
same,CC20,HepG2 [21],2.53 µM
same,Activity,Onchocerca gutturosa [22],100%
same,EC50,Onchocerca gutturosa [29],0.46 µM
Cc1cc2nc(NC(=O)C(C)(C)C)nc(Cl)c2n1Cc1ccc(Cl)cc1,Inhibition,Toxoplasma gondii [1],63.9%
same,Inhibition,Toxoplasma gondii [2],0%
same,inhibition at 10 µM,Toxoplasma gondii [3],0%
same,IC50,Toxoplasma gondii [4],no inhibition
same,CC50,[5],> 25 µM
same,Inhibition,Toxoplasma gondii [6],~50%
same,IC50,Toxoplasma gondii [7],no inhibition
same,Inhibition,Toxoplasma gondii [8],~85%
COC(=O)C1=C(C)NC(C)=C(C(=O)OC(C)C)C1c1cccc2nonc12 (configuration not stated) [ISRADIPINE],Activity,Onchocerca lienalis,53%
same,Activity,Onchocerca gutturosa [20],79%
same,CC20,HepG2 [21],66 µM
same,Activity,Onchocerca gutturosa [22],100%
same,EC50,Onchocerca gutturosa [29],0.89 µM
COc1ccc(N(CCc2cccc(C)n2)C(=O)C2CCCCC2)cc1,Inhibition,Onchocerca ochengi [17],7%
same,Activity,Onchocerca lienalis,13%
same,Inhibition,Onchocerca volvulus [18],100%
same,Inhibition,Onchocerca ochengi [19],4%
same,Inhibition,Brugia pahangi,11%
same,CC50,[5],> 50 µM
same,Activity,Onchocerca gutturosa [20],35.7%
same,CC20,HepG2 [21],>80 µM
same,Activity,Onchocerca gutturosa [22],42.9%
same,IC50,Onchocerca volvulus [23],1.34 µM
CC(C)(C)OC(=O)N1CCN(c2nccc(-c3ccc(-c4ccc(Cl)cc4)s3)n2)CC1,IC50,Dengue virus [9],7 µM
same,IC50,Dengue virus [10],3 µM
same,IC50,Dengue virus [11],2 µM
same,CC50,A549,> 50 µM
same,IC50,Dengue virus [12],7 µM
same,IC50,[13],10 µM
same,IC50,Dengue virus [14],> 50 µM
same,CC50,HepG2 [15],> 50 µM
same,CC50,[16],> 50 µM
CC(C(=O)Nc1ccc2oc(-c3ccncc3)nc2c1)c1ccccc1 (configuration not stated),Inhibition,Toxoplasma gondii [1],62.6%
same,Inhibition,Toxoplasma gondii [2],1.05%
same,inhibition at 10 µM,Toxoplasma gondii [3],3.75%
same,IC50,Toxoplasma gondii [4],no inhibition
same,CC50,[5],> 50 µM
same,Inhibition,Toxoplasma gondii [6],~75%
same,IC50,Toxoplasma gondii [7],no inhibition
same,Inhibition,Toxoplasma gondii [8],100%
CC(Oc1cccc(Cl)c1)C(=O)Nc1ccc2oc(-c3ccncc3)nc2c1 (configuration not stated),Inhibition,Toxoplasma gondii [1],85.4%
same,Inhibition,Toxoplasma gondii [2],81.6%
same,inhibition at 10 µM,Toxoplasma gondii [3],0%
same,IC50,Toxoplasma gondii [4],no inhibition
same,CC50,[5],> 25 µM
same,Inhibition,Toxoplasma gondii [6],100%
same,IC50,Toxoplasma gondii [7],no inhibition
same,Inhibition,Toxoplasma gondii [8],100%
CC(C)(C)C(=O)N(CCCCCCN1C[C@H](O)[C@@H](O)[C@H](O)[C@H]1CO)C1CCCCCC1,IC50,Dengue virus [9],0.07 µM
same,IC50,Dengue virus [10],0.2 µM
same,IC50,Dengue virus [11],0.08 µM
same,CC50,A549,> 50 µM
same,IC50,Dengue virus [12],0.6 µM
same,IC50,[13],> 50 µM
same,IC50,Dengue virus [14],2 µM
same,CC50,HepG2 [15],> 50 µM
same,CC50,[16],> 50 µM
COC(=O)c1ccc(F)cc1NS(=O)(=O)c1cccc(-c2cnn(Cc3ccccc3)c2)c1,IC50,Dengue virus [9],5 µM
same,IC50,Dengue virus [10],> 50 µM
same,IC50,Dengue virus [11],> 50 µM
same,CC50,A549,> 50 µM
same,IC50,Dengue virus [12],6 µM
same,IC50,[13],10 µM
same,IC50,Dengue virus [14],10 µM
same,CC50,HepG2 [15],10 µM
same,CC50,[16],20 µM
CS(=O)(=O)N1CCC(CCn2nc(Cc3cccc4ccccc34)c3c(N)ncnc32)CC1,Inhibition,Toxoplasma gondii [1],63.9%
same,Inhibition,Toxoplasma gondii [2],20.6%
same,inhibition at 10 µM,Toxoplasma gondii [3],0%
same,IC50,Toxoplasma gondii [4],no inhibition
same,CC50,[5],> 50 µM
same,Inhibition,Toxoplasma gondii [6],100%
same,IC50,Toxoplasma gondii [7],no inhibition
same,Inhibition,Toxoplasma gondii [8],100%
OC[C@H]1O[C@@H](n2c3ccc(Cl)cc3c3c(-c4cc5ccccc5o4)ncnc32)C(O)[C@H]1O (some centres not stated),IC50,Dengue virus [9],5 µM
same,IC50,Dengue virus [10],3 µM
same,IC50,Dengue virus [11],3 µM
same,CC50,A549,> 50 µM
same,IC50,Dengue virus [12],7 µM
same,IC50,[13],> 50 µM
same,IC50,Dengue virus [14],> 50 µM
same,CC50,HepG2 [15],10 µM
same,CC50,[16],1 µM
CC(C)(C)OC(=O)N1CCN(c2cc(-c3ccc(Oc4ccccc4)cc3)n[nH]2)CC1,IC50,Trypanosoma brucei [24],2.7 µM
same,IC50,Leishmania donovani [25],1.32 µM
same,CC50,L6,4.8 µM
same,IC50,Leishmania major,13 µM
same,CC50,[26],16 µM
same,CC20,HepG2 [21],4.03 µM
same,IC50,Trypanosoma brucei [27],3.89 µM
same,IC50,Leishmania donovani [28],> 10 µM
same,IC50,Leishmania infantum,10.2 µM
same,Toxicity on infected macrophages,Leishmania,20 µM
same,CC50,MRC5,> 32 µM
same,IC50,Trypanosoma cruzi,9.37 µM
